± gives the expanded uncertainty stated by the source.
Details: 101 kPa, Liquid; for viscosity: Capillary tube (Ostwald / Ubbelohde) method; for mass density: Vibrating tube method

SMILES | viscosity (293.15 K) | mass density (293.15 K) | viscosity (303.15 K) | mass density (303.15 K) | viscosity (313.15 K) | mass density (313.15 K) | viscosity (323.15 K) | mass density (323.15 K)
NCCCO [3-amino-1-propanol] | 40.26 ± 0.86 mPa·s | 987.5 ± 1 kg/m3 | 24.03 ± 0.52 mPa·s | 979.45 ± 1 kg/m3 | 15.08 ± 0.32 mPa·s | 971.67 ± 1 kg/m3 | 10.01 ± 0.22 mPa·s | 963.36 ± 1 kg/m3
NCCNCCO [N-(2-aminoethyl)ethanolamine] | 136.19 ± 3.6 mPa·s | 1029.14 ± 1 kg/m3 | 71.64 ± 1.6 mPa·s | 1021.45 ± 1 kg/m3 | 39.59 ± 0.86 mPa·s | 1014.18 ± 1 kg/m3 | 23.41 ± 0.52 mPa·s | 1006.54 ± 1 kg/m3

Other lines, results leading:

viscosity (293.15 K) | mass density (293.15 K) | viscosity (303.15 K) | mass density (303.15 K) | viscosity (313.15 K) | mass density (313.15 K) | viscosity (323.15 K) | mass density (323.15 K) | SMILES
30.44 ± 0.65 mPa·s | 960.81 ± 1 kg/m3 | 17.87 ± 0.39 mPa·s | 952.25 ± 1 kg/m3 | 10.79 ± 0.23 mPa·s | 944.43 ± 1 kg/m3 | 6.99 ± 0.15 mPa·s | 936.21 ± 1 kg/m3 | CC(O)CN (stereo not given) [1-amino-2-propanol]
6.99 ± 0.15 mPa·s | 951.16 ± 1 kg/m3 | 4.79 ± 0.1 mPa·s | 942.19 ± 1 kg/m3 | 3.45 ± 0.07 mPa·s | 933.93 ± 1 kg/m3 | 2.6 ± 0.06 mPa·s | 925.42 ± 1 kg/m3 | NCCNCCN [di(2-aminoethyl)amine]
1.17 ± 0.02 mPa·s | 788.88 ± 1 kg/m3 | 0.97 ± 0.02 mPa·s | 781.69 ± 1 kg/m3 | 0.81 ± 0.02 mPa·s | 772.3 ± 1 kg/m3 | 0.69 ± 0.02 mPa·s | 765.29 ± 1 kg/m3 | CCO [ethanol]
